Results on 19 compounds are retold here after patent publication US5786367A, “Cyclic amide derivatives” (Otsuka Pharmaceutical Co., Ltd., priority 1994, dated 1998).

Where two headings read alike, the source gives them in different places.

The test system of test [1] is lens samples obtained from rat. The test is described as follows: Activity for preventing the lens opacity (UV-irradiated cultured lens). Format: cell-based, rat (Wistar strain, male, 6-10 week age). As to conditions: 1 h, read-out: Rate of the activity for preventing lens opacity. On the procedure:
The lens samples obtained from rat (Wistar strain, male, 6-10 week age) were placed on 24-well plate, and were cultured in DEMEM (Dulbecco's modified Eagle's medium manufactured by Nissui Pharmaceutical Co., Ltd.) at 37° C. overnight, a 5% CO2 environment was used. Under dissecting microscope observation, the lens samples having transparency were only selected to use the test. Thus selected lens samples were transferred to midium (1 ml) in which the test compound was dissolved. (As to the reference test, the medium without containing the test compound was used.) The ultraviolet rays in the intensity of 8.8 mW/cm^2 was irradiated for 60 minutes by using a fluorescent lamp (TOSHIBA FL-20SE) to the lens samples. After the irradiation, the medium was replaced to new medium containing the test compound and further cultured overnight. The medium without the test compound was replaced everyday during 3 days. By using a dissecting microscope, opacity of the lens samples were observed. The degrees of opacity of the lens samples was determined by deviding the field of vision into 8 fields as follows: Score 0: transparent; Score 1: some loss of transparency; and Score 2: completely opaque. Rate of activity for preventing the lens opacity was calculated from the following formula: [formula]

In the next test the test system is skin erythema. The test is described as follows: Activity for inhibiting skin erythema caused by ultraviolet radiation. As to conditions: for inhibition in vivo at 3 %: Cavia porcellus, UV 1.3-1.5 mW/cm^2 for 30 minutes, measured 24 hours later; for 50% inhibitory concentration (IC50) for inhibiting the skin erythema: three concentrations within 0.1 to 10%. Format: in vivo, albino guinea pig (Hartley strain, female, 7-8 week age). The protocol: The hairs covering in the back of albino guinea pig (Hartley strain, female, 7-8 week age) were shaved by using an electric hair clippers and a shaver. In the next day, the guinea pig was fixed in Bowlman's cage, then a light shield tape (adhesive plaster for patch test), having 4 round holes of 1.5 cm in diameter was adhered on the hair clipped portion so as to provide 4 sites (round holes) to be exposed to the ultraviolet rays. […] Each one of the test sample solutions was prepared by dissolving each test compounds in three kinds of concentrations within 0.1 to 10%, and applied.

Test [2] relates to skin homogenate of guinea pig. The test is described as follows: Activity for inhibiting the formation of lipid peroxides (ultraviolet-B irradiated skin homogenate, TBA method). Format: biochemical, albino guinea pig (Hartley strain, female). As to conditions: test compound 10^-4 M; UV 9.5 mW/cm^2, 60 minutes.
Experimental: The activity for inhibiting the formation of lipid peroxides which are increasingly formed by exposed to the ultraviolet-B radiation to the skin homogenate of guinea pig was determined by a procedure of thiobarbituric acid method (TBA method).
The activity for inhibiting the formation of lipid peroxides can be evaluated by degree of decreasing the optical absorbance of the condensate of thus formed malondialdehyde with thiobarbituric acid, by adding a test sample of the cyclic amide derivative of the present invention to the homogenate.
That is, the hairs covering in the back of an albino guinea pig (Hartley strain, female) were clipped by using an electric hair clippers under anesthesia. After the enucleation of the hair clipped portion of the skin, the subcutaneous tissue of this skin was removed in cold physiological saline. Distilled water in an amount of 9 times by weight of the skin tissue was added to this skin subcutaneous tissue, then was subjected to homogenation and centrifugation (600 g, for 5 minutes) to obtain the supernatant liquid. 5 Microliters each of test sample solutions of various concentrations was added to 0.5 ml each of the supernatant liquid, then the ultraviolet ray in the intensity of 9.5 mW/cm^2 was irradiated for 60 minutes by using fluorescent lamps (TOSHIBA FL-20SE, manufactured by Toshiba Corporation) as a light source. As to the reference sample solution, the solvent for dissolution of the test compound was used in place of the test sample solution. After ultraviolet radiation, the amount of lipid peroxide being formed in the sample solution (TBA value) was measured by TBA method (cf. Analytical Biochemistry, 1979, Vol. 95, pp. 351-358), and the inhibition rate of lipid peroxide formation shown by the test sample was calculated by the following formula: [formula]
Where [3] appears, read: test compound 1 x 10^-4 M, UV 8.8 mW/cm^2, 60 minutes.
Where [4] appears, read: 3% concentration of test compound, 10 μl topical, read-out: Rate of activity for inhibiting the skin erythema.

Regarding `O=C1O[C@H]([C@@H](O)CO)C(O)=C1O` [Vitamin C, reference compound], the inhibition at 100 µM in test [1] (setting [3]) was -11%. Further, the inhibition at 1000 µM in test [1] (test compound 10 x 10^-4 M, UV 8.8 mW/cm^2, 60 minutes) came to 84%.
Take `C=CCc1cc2c(c(CC=C)c1O)CCC(=O)N2CCOC(C)=O` [Example 103, 1-(2-Acetyloxyethyl)-5,7-diallyl-3,4-dihydro-6-hydroxy-2(1H)-quinolinone]: in test [1] (setting [3]), the inhibition at 100 µM came to 57%.
On to `C=CCc1cc2c(c(CC=C)c1O)CCC(=O)N2CCCCCCCC` [Example 101], for which the inhibition in vivo at 3 % in the test with skin erythema (setting [4]) worked out at 37%. The inhibition at 100 µM in test [1] (setting [3]) was found to be 55%.
`C=CCc1cc2c(c(CC=C)c1O)CCC(=O)N2CCO` [Example 109, 5,7-diallyl-3,4-dihydro-6-hydroxy-1-(2-hydroxyethyl)-2(1H)-quinolinone]: the inhibition at 100 µM in test [1] (setting [3]) is 66%.
Turning to `C=CCc1cc2c(c(CC=C)c1O)CCC(=O)N2CC(C)C` [Example 41], the inhibition in vivo at 3 % in the test with skin erythema (setting [4]) is 57%. Further, the “50% inhibitory concentration (IC50) for inhibiting the skin erythema” value (“50% inhibitory concentration (IC50)” for short) with skin erythema (topical) is 2.0 concentration in %. The inhibition at 100 µM in test [1] (setting [3]) came out at 55%. In test [2], the “Inhibition rate of lipid peroxide formation” value (from here on “Inhibition rate”) is reported as 96%.
Take `C=CCc1cc2c(sc(=O)n2CC=C)c(CC=C)c1O` [Example 39, 6-hydroxy-3,5,7-triallylbenzothiazolinone]: the inhibition in vivo at 3 % in the test with skin erythema (setting [4]) worked out at 42%. Besides, in the test with skin erythema (topical), the “50% inhibitory concentration (IC50)” value was 4.7 concentration in %. The “Inhibition rate” value in test [2] worked out at 82%.
On to `C=CCc1cc2c(c(CC=C)c1O)CCC(=O)N2C(C)C(=O)O` (stereo not shown) [Example 115, Sodium 2-(5,7-Diallyl-6-hydroxy-1,2,3,4-tetrahydro-2-oxoquinolin-1-yl)propionate], for which, in the test with skin erythema (topical, 24 h, read-out: Rate of activity for inhibiting the skin erythema, 3% concentration of test compound, 10 μl topical), the inhibition in vivo at 3 % is 33%. In addition, the inhibition at 100 µM in test [1] was determined as 63%.
In the case of `C=CCc1cc2c(c(CC=C)c1O)CCC(=O)N2C(C)C` [Example 98], the inhibition at 100 µM in test [1] (setting [3]) was determined as 45%.
On to `C=CCc1cc2c(c(CC=C)c1O)CCC(=O)N2CCCN.Cl` [Example 67, 1-(3-aminopropyl)-5,7-diallyl-3,4-dihydro-6-hydroxy-2(1H)-quinolinone hydrochloride], for which, in the test with skin erythema (setting [4]), the inhibition in vivo at 3 % turned out to be 31%. Further, the inhibition at 100 µM in test [1] (setting [3]) was 40%. For the same compound, in test [2], the “Inhibition rate” value came to 75%.
As for `C=CCc1cc2c(c(CC=C)c1O)CCC(=O)N2C/C=C(\C)CCC=C(C)C` [Example 48], in the test with skin erythema (setting [4]), the inhibition in vivo at 3 % worked out at 37%. In test [2], the “Inhibition rate” value was 95%.
Taken in the same sequence, the figures for `C=CCc1cc2c(c(CC=C)c1O)CCC(=O)N2c1ccc(OC)c(OC)c1` [Example 60] were 27% and 83%.
As to `C=CCc1cc2c(c(CC=C)c1O)CCC(=O)N2C` [Example 40], in the test with skin erythema (setting [4]), the inhibition in vivo at 3 % amounted to 23%. Also, in the test with skin erythema (topical), the “50% inhibitory concentration (IC50)” value is 5.6 concentration in %. Further, the “Inhibition rate” value in test [2] was 84%.
In the case of `C=CCc1cc2c(c(CC=C)c1O)N(CC=C(C)C)C(=O)CC2` [Example 28, 6,8-diallyl-3,4-dihydro-7-hydroxy-1-prenyl-2(1H)-quinolinone], the inhibition in vivo at 3 % in the test with skin erythema (setting [4]) is 30%. Further, in test [2], the “Inhibition rate” value worked out at 80%.
Turning to `C=CCOc1cccc(CN2C(=O)CCc3c2cc(CC=C)c(O)c3CC=C)c1` [Example 50], the inhibition in vivo at 3 % in the test on skin erythema (setting [4]) turned out to be 36%. In addition, the “Inhibition rate” value in test [2] was determined as 89%.
Taken in the same sequence, the figures for `C=CCOc1cc2c(cc1CC=C)CCC(=O)N2CC=C(C)C` [Example 20, 6-allyl-7-allyloxy-3,4-dihydro-1-prenyl-2(1H)-quinolinone] were 37% and 81%.
Take `C=CCc1c(O)ccc2c1CCC(=O)N2CCCCCCCCCCO` [Example 63]: in the test with skin erythema (setting [4]), the inhibition in vivo at 3 % is 35%. In addition, the “50% inhibitory concentration (IC50)” value in the test with skin erythema (topical) was 6.5 concentration in %. Besides, the “Inhibition rate” value in test [2] was 81%.
The matching figures for `C=CCc1cc2c(c(CC=C)c1O)CCC(=O)N2CC1CCCCC1` [Example 44]: 63%, 1.6 concentration in % and 100%.
As for `C=CCc1cc2c(c(CC=C)c1O)CCC(=O)N2CCCNC(N)=O` [Example 68, 5,7-diallyl-3,4-dihydro-6-hydroxy-1-(3-ureidopropyl)-2(1H)-quinolinone], the inhibition in vivo at 3 % in the test on skin erythema (setting [4]) was found to be 43%. Besides, the “Inhibition rate” value in test [2] is reported as 68%.
As to `C=CCc1cc2c(c(CC=C)c1O)CCC(=O)N2CCCCCCCCCCO` [Example 33, 5,7-diallyl-3,4-dihydro-6-hydroxy-1-(10-hydroxy)-decyl-2(1H)-quinolinone], the inhibition in vivo at 3 % in the test with skin erythema (setting [4]) amounted to 18%. For the same compound, the “50% inhibitory concentration (IC50)” value in the test on skin erythema (topical) is given as 9.4 concentration in %. For the same compound, the “Inhibition rate” value in test [2] is recorded as 83%.
